# In ChEMBL document CHEMBL3797051 (Medchemcomm, 2016):
# pKi: −log10 of the molar value.
# Assays:
# Histone deacetylase 8 [1] = target: T1, Histone deacetylase 8 (Homo sapiens, UniProt Q9BY41); assay: Inhibition of recombinant human HDAC8 expressed in Escherichia coli assessed as hydrolase activity using fluorogenic AC-LGK-tfa-AMC as substrate measured after 60 mins by fluorescence analysis
# T1 sequence (Q9BY41 whole entry): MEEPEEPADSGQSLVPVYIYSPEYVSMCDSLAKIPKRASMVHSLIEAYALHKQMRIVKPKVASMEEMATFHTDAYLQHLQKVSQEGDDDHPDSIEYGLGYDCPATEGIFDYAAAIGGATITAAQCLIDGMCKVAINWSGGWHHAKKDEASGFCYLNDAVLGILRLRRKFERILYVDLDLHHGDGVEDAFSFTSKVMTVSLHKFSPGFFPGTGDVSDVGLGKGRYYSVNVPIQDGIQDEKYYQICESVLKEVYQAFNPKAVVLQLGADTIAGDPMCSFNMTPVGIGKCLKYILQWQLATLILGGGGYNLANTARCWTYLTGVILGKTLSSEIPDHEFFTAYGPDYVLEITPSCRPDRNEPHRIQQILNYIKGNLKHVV
# Histone deacetylase 8 [2] = target: T1, Histone deacetylase 8; assay: Inhibition of recombinant human HDAC8 expressed in Escherichia coli assessed as inhibition constant ki,1 using fluorogenic AC-LGK-tfa-AMC as substrate measured after 60 mins by fluorescence analysis
# [3] = target: T2, Protein deacetylase HDAC6 (Homo sapiens, UniProt Q9UBN7); assay: Inhibition of His-tagged recombinant human HDAC6 expressed in insect cells assessed as hydrolase activity using fluorogenic AC-LGK-ac-AMC as substrate measured after 60 mins by fluorescence analysis
# T2 sequence (Q9UBN7 whole entry): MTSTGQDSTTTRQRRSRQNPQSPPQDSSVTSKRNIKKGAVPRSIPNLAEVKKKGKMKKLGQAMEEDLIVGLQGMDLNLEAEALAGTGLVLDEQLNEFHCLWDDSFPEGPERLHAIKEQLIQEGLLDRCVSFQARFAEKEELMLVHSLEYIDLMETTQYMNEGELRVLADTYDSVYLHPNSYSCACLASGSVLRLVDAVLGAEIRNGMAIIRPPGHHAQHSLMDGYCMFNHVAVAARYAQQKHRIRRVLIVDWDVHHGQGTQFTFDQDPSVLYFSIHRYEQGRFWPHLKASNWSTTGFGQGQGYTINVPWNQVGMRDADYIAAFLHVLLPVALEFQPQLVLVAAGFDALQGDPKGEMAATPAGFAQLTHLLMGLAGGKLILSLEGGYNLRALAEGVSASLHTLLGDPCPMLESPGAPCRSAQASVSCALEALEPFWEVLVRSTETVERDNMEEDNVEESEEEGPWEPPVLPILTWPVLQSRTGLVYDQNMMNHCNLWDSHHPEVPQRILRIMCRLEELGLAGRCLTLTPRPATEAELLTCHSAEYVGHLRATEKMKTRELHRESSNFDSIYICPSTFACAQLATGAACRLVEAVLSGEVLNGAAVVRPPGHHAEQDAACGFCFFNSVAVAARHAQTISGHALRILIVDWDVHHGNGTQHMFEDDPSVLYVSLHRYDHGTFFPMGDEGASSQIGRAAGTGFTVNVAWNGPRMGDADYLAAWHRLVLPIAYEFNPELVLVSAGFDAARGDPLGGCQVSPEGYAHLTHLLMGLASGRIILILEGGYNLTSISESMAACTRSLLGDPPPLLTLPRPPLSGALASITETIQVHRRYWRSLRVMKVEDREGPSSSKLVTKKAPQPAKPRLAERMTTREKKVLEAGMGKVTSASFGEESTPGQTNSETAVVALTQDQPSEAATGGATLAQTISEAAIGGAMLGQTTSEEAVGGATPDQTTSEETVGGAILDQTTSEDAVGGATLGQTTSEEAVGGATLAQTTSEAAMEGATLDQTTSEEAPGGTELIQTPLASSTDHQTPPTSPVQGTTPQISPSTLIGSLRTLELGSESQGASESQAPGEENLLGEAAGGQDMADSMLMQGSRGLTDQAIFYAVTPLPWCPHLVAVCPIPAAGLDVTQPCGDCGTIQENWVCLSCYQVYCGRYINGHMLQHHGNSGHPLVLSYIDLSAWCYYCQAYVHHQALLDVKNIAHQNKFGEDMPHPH
# Histone deacetylase 4 = Histone deacetylase 4 (Homo sapiens, UniProt P56524); assay: Inhibition of N-terminal GST-tagged recombinant human HDAC4 assessed as hydrolase activity using fluorogenic […] as substrate measured after 60 mins by fluorescence analysis
# Sequence of Histone deacetylase 4 (P56524 whole entry): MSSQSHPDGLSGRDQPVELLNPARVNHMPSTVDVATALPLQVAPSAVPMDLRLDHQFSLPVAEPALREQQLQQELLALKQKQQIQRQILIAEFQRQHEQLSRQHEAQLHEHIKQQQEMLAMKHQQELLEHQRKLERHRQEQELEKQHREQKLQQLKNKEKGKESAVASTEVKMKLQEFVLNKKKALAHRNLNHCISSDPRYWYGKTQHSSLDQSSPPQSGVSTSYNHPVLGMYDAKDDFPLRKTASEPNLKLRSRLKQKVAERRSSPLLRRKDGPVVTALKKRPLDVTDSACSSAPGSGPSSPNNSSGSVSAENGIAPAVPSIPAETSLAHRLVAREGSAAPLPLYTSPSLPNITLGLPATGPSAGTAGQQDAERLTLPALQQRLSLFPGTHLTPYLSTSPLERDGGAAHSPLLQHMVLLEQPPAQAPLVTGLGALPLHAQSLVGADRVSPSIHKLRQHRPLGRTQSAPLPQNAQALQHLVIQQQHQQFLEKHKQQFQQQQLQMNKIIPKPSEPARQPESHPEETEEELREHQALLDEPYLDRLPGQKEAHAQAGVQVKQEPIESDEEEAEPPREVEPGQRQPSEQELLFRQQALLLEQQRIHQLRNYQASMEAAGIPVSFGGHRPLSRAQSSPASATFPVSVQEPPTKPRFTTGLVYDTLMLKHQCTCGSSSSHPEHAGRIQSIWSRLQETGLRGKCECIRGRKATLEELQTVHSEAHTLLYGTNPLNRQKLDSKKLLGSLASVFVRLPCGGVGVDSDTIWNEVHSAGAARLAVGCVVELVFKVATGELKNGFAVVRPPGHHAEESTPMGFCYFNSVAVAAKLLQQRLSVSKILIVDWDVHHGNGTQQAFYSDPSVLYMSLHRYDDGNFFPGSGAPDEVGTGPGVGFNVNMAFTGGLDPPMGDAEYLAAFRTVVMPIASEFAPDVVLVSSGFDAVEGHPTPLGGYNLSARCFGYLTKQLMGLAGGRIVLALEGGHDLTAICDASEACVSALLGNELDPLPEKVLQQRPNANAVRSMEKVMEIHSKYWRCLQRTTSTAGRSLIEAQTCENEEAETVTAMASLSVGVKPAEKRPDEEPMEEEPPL
structure (smiles),measurement,setting,value
O=C(CCCCCCC(=O)C(F)(F)F)Nc1ccccc1,pKi,Histone deacetylase 8 [1],7.48
same,pKi,Histone deacetylase 8 [2],5.14
same,pKi,[3],5.35
same,pKi,Histone deacetylase 4,8.29
